Assay results published in patent US20230123334A1, “AMINO LIPID COMPOUND, PREPARATION METHOD THEREFOR, AND APPLICATION THEREOF” (SHENZHEN SHENXIN BIOTECHNOLOGY CO., LTD., priority 2020, published 2023).

Assays:
Type in all cases: cell-based
Hela cells [1] = experiment: Transfection of Hela cell line, DNA vectors; conditions: 75 ng plasmid DNA, GFP cells / total cells
Method in brief: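 Amino lipid/DOPE liposomes in sodium acetate pH 5.6 were complexed with 75 ng psin-EGFP-IRES-Puro plasmid for 30 min at room temperature, then mixed with 3-5×10^4 Hela cells in DMEM/10% FBS at 37° C. Hoechst stain after 20-24 h, imaging after a further 20-24 h. Efficiency = GFP-positive cells / total nuclei.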

Hela cells [2] = experiment: Transfection of Hela cell line, mRNA vectors; conditions: 50 ng EGFP mRNA per well
Method in brief: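 HeLa cells in DMEM with 10% FBS transfected with 50 ng EGFP mRNA per well. Readout is percentage of GFP-positive cells among total cells counted by Hoechst nuclear stain; Lipofectamine2000 served as positive control.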

MCF7 cells [3] = experiment: Transfection of MCF7 cell line, DNA vectors; set-up: concentration or dose not given beside the values; conditions: plasmid DNA, GFP cells / total cells
Method in brief: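 MCF7 cells in DMEM with fetal bovine serum were transfected in 96-well format. Read-out was the percentage of GFP-fluorescent cells among total cells counted by Hoechst nuclear stain. Lipofectamine2000 served as positive control.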

MCF7 cells [4] = experiment: Transfection of MCF7 cell line, mRNA vectors; conditions: 50 ng EGFP mRNA per well
Method in brief: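 MCF7 cells in DMEM with fetal bovine serum were transfected with 50 ng EGFP mRNA per well. Read-out was the percentage of GFP-positive cells among total Hoechst-stained nuclei, with Lipofectamine2000 as positive control.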

[5] = system: embryonic stem cells (hESC2); experiment: Screening as DNA vectors in embryonic stem cells, flow cytometry; conditions: 75 ng plasmid DNA, 48 hours after transfection, flow cytometer
From the text: (§1) Cell line: embryonic stem cells (hESC2, cultured according to reported methods: Stem Cells, 2005, 23, 544-549)
(§2) Medium: mTeSR1 (STEMCELL)
(§3) Mode of screening: cell transfection on 96-well plates
(§4) Detection (readout): percentage of the number of GFP fluorescent cells relative to the total number of cells. Lipofectamine Stem was used as the positive control.
Method: an 8-channel pipette was used for sample addition. The contents shown were for a single well of a 96-well flat plate.
1. Stem cells were cultured to 3-5×10^4 cells per well in a 96-well plate treated with matrigel.
2. The compound (0.01 mmol) prepared in Example 1 was dissolved in 1 mL of anhydrous ethanol. After ultrasonically dissolved, 10 μL of the resultant amino lipid solution in ethanol was taken and mixed with 5 μL of DOPE solution in ethanol ([…]). The obtained mixture was then added with 35 μL of 0.2 M sodium acetate buffer (pH 5.6), and vortexed at a constant rotating speed for 30 s. Then, 4 μL was taken from the obtained product and added to 46 μL of 0.02 M sodium acetate buffer (pH 5.6), and vortexed at a constant rotating speed for 30 s to form a liposome solution. 5 μL of this liposome solution was mixed with 75 ng of plasmid DNA (pSin-EGFP-IRES-Puro) dissolved in 5 μL of 0.02 M sodium acetate buffer, and allowed to stay at room temperature for 30 min to form a lipid/DNA transfection complex.
3. 10 μL of the lipid/DNA transfection complex was incubated at room temperature for 30 min, followed by addition of 90 μL mTeSR1 medium was added and mixing with a pipette. 100 μL of the mixture was added to separate wells of a 96-well culture plate and placed in an incubator containing 5% CO2 at 37° C.
4. 48 hours after transfection, the cells were digested with 0.05% Trypsin-EDTA. The cells were resuspended in a PBS buffer and filtered. The cell suspension was placed in a flow cytometer and the number of GFP-expressing cells in no less than 2000 cells was measured so as to obtain the absolute efficiency of cell transfection. The relative efficiency of cell transfection was obtained by comparing the cell transfection efficiency with the positive control Lipofectamine Stem.

[6] = system: embryonic stem cells (hESC2); experiment: Screening as mRNA vectors in embryonic stem cells; conditions: 50 ng EGFP mRNA per well
Experimental: as §1, §2
Mode of screening: cell transfection on 96-well plate
as §4
Method: the experimental method was basically the same with Example 10, and the mass of EGFP mRNA for transfection was 50 ng per well.

cardiomyocytes [7] = experiment: Screening as DNA vectors in cardiomyocytes; set-up: concentration or dose not given beside the values; conditions: method as Example 4
Experimental: Cell line: cardiomyocytes (obtained from induced differentiation of hESC according to reported methods: J. Mol. Cell. Cardiol. 2011, 51, 288-298)
(§5) Medium: DMEM supplemented with 10% fetal bovine serum (Invitrogen)
as §3
(§6) Detection (readout): percentage of the number of GFP fluorescent cells relative to the total number of cells (the total number of cells was determined using nucleus dye Hoechst). Lipofectamine Stem (Invitrogen) was used as the positive control, according to the manufacturer's instructions.
Method: the experimental method was basically the same with Example 4.

cardiomyocytes [8] = experiment: Screening as mRNA vectors in cardiomyocytes; conditions: 50 ng EGFP mRNA per well
Experimental: Cell line: cardiomyocytes (obtained from induced differentiation of hESC according to reported methods: J Mol. Cell. Cardiol. 2011, 51, 288-298)
as §5, §3, §6
Method: the experimental method was basically the same with Example 4, and the mass of EGFP mRNA for transfection was 50 ng per well.

| SMILES | Absolute DNA transfection efficiency in Hela cells (Hela cells [1]) | Absolute mRNA transfection efficiency in Hela cells (Hela cells [2]) | Absolute DNA transfection efficiency in MCF7 cells (MCF7 cells [3]) | Absolute mRNA transfection efficiency in MCF7 cells (MCF7 cells [4]) | Absolute DNA transfection efficiency in embryonic stem cells [5] | Absolute mRNA transfection efficiency in embryonic stem cells [6] | Absolute DNA transfection efficiency in cardiomyocytes (cardiomyocytes [7]) | Absolute mRNA transfection efficiency in cardiomyocytes (cardiomyocytes [8]) |
| --- | --- | --- | --- | --- | --- | --- | --- | --- |
| CCCCCCCCCCCCNc1nc(NCCCN2CCOCC2)nc(SCCCCCCCCC)n1 [Compound S9N12D8] | 6.8% | 6.8% | 6.2% | 0.7% | 1.1% | 11.1% | 1.5% | 2.1% |
| CCCCCCCCCCCCNc1nc(NCCCN2CCN(C)CC2)nc(SCCCCCCCCC)n1 [Compound S9N12D9] | 14.4% | 14.4% | 20.0% | 16.4% | 2.7% | 7.6% | 0.0% | 32.0% |
| CCCCCCCCCCCCNc1nc(NCC2CCN(C)CC2)nc(SCCCCCCCCC)n1 [Compound S9N12D10] | 12.9% | 12.9% | 31.7% | 11.2% | 5.3% | 14.0% | 3.6% | 40.6% |
| CCCCCCCCCCCSc1nc(NCCCCCCCC)nc(NCCN2CCCC2)n1 [Compound S11N8D3] | 12.9% | 12.9% | 17.7% | 8.6% | 4.3% | 12.8% | 0.2% | 24.5% |
| CCCCCCCCCCCSc1nc(NCCCCCCCC)nc(NCCN2CCN(C)CC2)n1 [Compound S11N8D5] | 9.6% | 9.6% | 20.1% | 21.2% | 4.0% | 6.9% | 9.1% | 32.2% |
| CCCCCCCCCCCSc1nc(NCCCCCCCC)nc(NCCCN(C)C)n1 [Compound S11N8D6] | 18.4% | 18.4% | 9.3% | 11.0% | 1.7% | 2.0% | 6.7% | 7.9% |
| CCCCCCCCCCCSc1nc(NCCCCCCCC)nc(NCCCN2CCOCC2)n1 [Compound S11N8D8] | 6.1% | 6.1% | 0.1% | 7.8% | 0.0% | 1.3% | 1.2% | 0.9% |
| CCCCCCCCCCCSc1nc(NCCCCCCCC)nc(NCCCN2CCN(C)CC2)n1 [Compound S11N8D9] | 11.7% | 11.9% | 20.9% | 42.3% | 3.6% | 34.8% | 0.1% | 25.8% |
| CCCCCCCCCCCSc1nc(NCCCCCCCC)nc(NCC2CCN(C)CC2)n1 [Compound S11N8D10] | 16.7% | 16.7% | 25.6% | 38.9% | 12.6% | 35.4% | 6.6% | 41.7% |
| CCCCCCCCCCCSc1nc(NCCCCCCCCC)nc(NCCN2CCCC2)n1 [Compound S11N9D3] | 11.5% | 11.5% | 13.6% | 26.6% | 3.7% | 22.0% | 0.3% | 8.3% |
| CCCCCCCCCCCSc1nc(NCCCCCCCCC)nc(NCCN2CCN(C)CC2)n1 [Compound S11N9D5] | 10.6% | 10.6% | 23.1% | 17.8% | 0.5% | 24.9% | 19.7% | 30.7% |
| CCCCCCCCCCCSc1nc(NCCCCCCCCC)nc(NCCCN(C)C)n1 [Compound S11N9D6] | 20.3% | 20.3% | 25.1% | 32.6% | 1.0% | 0.7% | 22.5% | 8.7% |
| CCCCCCCCCCCSc1nc(NCCCCCCCCC)nc(NCCCN2CCOCC2)n1 [Compound S11N9D8] | 4.3% | 4.3% | 0.9% | 13.1% | 0.8% | 3.2% | 1.7% | 2.6% |
| CCCCCCCCCCCSc1nc(NCCCCCCCCC)nc(NCCCN2CCN(C)CC2)n1 [Compound S11N9D9] | 11.8% | 11.8% | 33.5% | 27.3% | 1.4% | 33.5% | 0.3% | 21.0% |
